{
  "source": "patent US9359361B2",
  "about": "“Immune system modulators” (JANUS BIOTHERAPEUTICS, INC., priority 2011, dated 2016)",
  "molecular_target": "human TLR9 (hTLR9) (Homo sapiens (Human), UniProt Q9NR96)",
  "sequence (Q9NR96 26-1032)": "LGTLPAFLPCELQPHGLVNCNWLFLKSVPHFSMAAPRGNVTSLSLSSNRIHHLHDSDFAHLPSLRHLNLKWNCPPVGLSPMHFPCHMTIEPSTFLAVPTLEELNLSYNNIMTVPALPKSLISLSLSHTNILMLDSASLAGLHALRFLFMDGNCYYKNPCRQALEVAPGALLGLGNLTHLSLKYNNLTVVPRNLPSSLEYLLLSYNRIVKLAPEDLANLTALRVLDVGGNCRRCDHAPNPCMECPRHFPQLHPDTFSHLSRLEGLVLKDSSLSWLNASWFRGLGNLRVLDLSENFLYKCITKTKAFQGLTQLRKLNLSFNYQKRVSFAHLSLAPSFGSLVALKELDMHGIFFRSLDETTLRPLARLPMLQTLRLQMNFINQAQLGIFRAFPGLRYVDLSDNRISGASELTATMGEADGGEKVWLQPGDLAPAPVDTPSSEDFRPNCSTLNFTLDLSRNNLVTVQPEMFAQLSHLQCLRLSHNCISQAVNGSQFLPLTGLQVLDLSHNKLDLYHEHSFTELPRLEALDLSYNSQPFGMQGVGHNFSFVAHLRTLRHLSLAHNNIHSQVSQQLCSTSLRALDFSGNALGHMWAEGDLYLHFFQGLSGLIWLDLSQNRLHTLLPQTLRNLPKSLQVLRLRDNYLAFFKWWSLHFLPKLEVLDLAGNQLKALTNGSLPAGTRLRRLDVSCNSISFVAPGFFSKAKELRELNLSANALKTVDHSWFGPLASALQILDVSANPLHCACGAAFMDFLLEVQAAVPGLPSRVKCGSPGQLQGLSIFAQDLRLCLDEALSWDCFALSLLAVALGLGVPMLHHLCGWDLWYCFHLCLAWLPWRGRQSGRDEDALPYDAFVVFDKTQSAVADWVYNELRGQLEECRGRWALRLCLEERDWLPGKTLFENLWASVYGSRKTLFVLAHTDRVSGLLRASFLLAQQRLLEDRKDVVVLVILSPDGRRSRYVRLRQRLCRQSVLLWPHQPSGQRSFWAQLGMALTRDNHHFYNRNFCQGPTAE",
  "experiment": "TLR9 antagonist assay in HEK-Blue-hTLR9 cells (NF-kB/AP-1 SEAP reporter)",
  "type": "cell-based",
  "settings": "hTLR9 agonist (such as ODN 2006, 1 uM), SEAP readout at 620 nm, read-out: hTLR9 antagonism IC50",
  "text": "TLR9 Antagonist Assay HEK-Blue™-hTLR9 cells were obtained from InvivoGen Inc. and used to determine test compound antagonism of human TLR9 (hTLR9) driven responses. HEK-Blue™-hTLR9 cells are designed for studying the stimulation of human TLR9 by monitoring the activation of NF-kB. As described by the manufacturer, “HEK-Blue™-hTLR9 cells were obtained by co-transfection of the hTLR9 gene and an optimized secreted embryonic alkaline phosphatase (SEAP) reporter gene into HEK293 cells. The SEAP reporter gene is placed under the control of the IFN-b minimal promoter fused to five NF-kB and AP-1 binding sites. Stimulation with a TLR9 ligand activates NF-kB and AP-1 which induces the production of SEAP. Levels of SEAP can be easily determined with QUANTI-Blue™ a detection medium that turns purple/blue in the presence of alkaline phosphatase”. TLR9 Antagonism Assay […] Day 2 […] Day 3 […] Calculation of IC50 The concentration dependent inhibition of hTLR9 dependent SEAP production was expressed as the concentration of compound which produced half the maximal level of SEAP induced by the hTLR agonist alone.",
  "data": [
    {"smiles": "c1ccc(-c2nc(NCCN3CCOCC3)c3nc(NCCN4CCOCC4)c(N4CCCC4)nc3n2)cc1", "note": "[Example 66]", "values": [
      {"measurement": "IC50", "result": 181, "unit": "nM"}
    ]}
  ]
}
